Patent US10869844B2, “Methods for the treatment of depression” (Janssen Pharmaceutica NV, priority 2014, dated 2020)
Read-outs that look alike come from different tables or passages of the source.

Experiments:
adult subjects with TRD [1] = assay type: in vivo, human; conditions: for Non-responders % / Non-responders N / Responders % (MADRS total score reduction >50% TRD2001, ≥50% TRD2002) / Responders N (MADRS total score reduction >50% TRD2001, ≥50% TRD2002): after first infusion (Day 2 TRD2001, Day 3 or 4 TRD2002)
Description: (§1) Association between changes in MADRS total score from baseline and the SNP rs6265 after a single dose was evaluated in placebo subjects and active subjects using an ANCOVA model under a dominant model with baseline MADRS total score, and grouped genotype (Val/Val or Met carrier). A statistically significant result was found in active subjects (p=0.02).
as §1, with “the % responders” for “changes in MADRS total score from baseline”, “a logistic regression” for “an ANCOVA”, “score” for “score,”, “(p=0.03).” for “(p=0.02).”
Association between the % remitters and the SNP rs6265 after a single dose was evaluated in placebo subjects and as well as in active subjects using a logistic regression model under a dominant model with baseline MADRS total score and grouped genotype (Val/Val or Met carrier).

Met/Met knocked in mice = conditions: LIU, Biol. Psychiatry 2012; cited from earlier work
adult subjects with TRD [2] = conditions: for Day 17 responders who maintained response status up to Day 35, % / Day 17 responders who maintained response status up to Day 35, number: all subjects

SMILES: CNC1(c2ccccc2Cl)CCCCC1=O (racemic) [Ketamine, ketamine]
- Non-responders % (adult subjects with TRD [1]; Met carriers): 92.3%
- Non-responders N (adult subjects with TRD [1]; Met carriers): 12
- Responders % (MADRS total score reduction >50% TRD2001, ≥50% TRD2002) (adult subjects with TRD [1]; Met carriers): 7.7%
- Responders N (MADRS total score reduction >50% TRD2001, ≥50% TRD2002) (adult subjects with TRD [1]; Met carriers): 1
- Non-responders % (adult subjects with TRD [1]; Val/Val): 71.4%
- Non-responders N (adult subjects with TRD [1]; Val/Val): 15
- Responders % (MADRS total score reduction >50% TRD2001, ≥50% TRD2002) (adult subjects with TRD [1]; Val/Val): 28.6%
- Responders N (MADRS total score reduction >50% TRD2001, ≥50% TRD2002) (adult subjects with TRD [1]; Val/Val): 6
- Clinical response associated with Met allele of Val66Met rs6265 (adult subjects with TRD [1]; acute, single dose administration): smaller clinical response
- Antidepressant-like response, Met/Met knocked in mice compared to Val/Val mice (Met/Met knocked in mice): blunted antidepressant-like response
- Synaptogenesis, Met/Met knocked in mice compared to Val/Val mice (Met/Met knocked in mice): reduced synaptogenesis
- Day 17 responders who maintained response status up to Day 35, % (adult subjects with TRD [2]; Met carriers (of 7)): 42.9%
- Day 17 responders who maintained response status up to Day 35, number (adult subjects with TRD [2]; Met carriers (of 7)): 3
- Day 17 responders who maintained response status up to Day 35, % (adult subjects with TRD [2]; Val/Val (of 12)): 91.7%
- Day 17 responders who maintained response status up to Day 35, number (adult subjects with TRD [2]; Val/Val (of 12)): 11
- Responders on Day 17, number (adult subjects with TRD [2]; among all subjects (Val/Val and Met carriers)): 19
- Responders on Day 17, number (adult subjects with TRD [2]; among all subjects, Met carriers): 7
- Responders on Day 17, number (adult subjects with TRD [2]; among all subjects, Val/Val): 12
